The values that follow come from PubChem BioAssay (NCI).

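Test compounds were applied to cells in 96-well plates for 48 hours at 5 doses. GI50 is the concentration that inhibits growth by half. At the TGI there is no net growth.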

Test systems include ACHN renal; CCRF-CEM leukemia; DU-145 prostate; LOX IMVI melanoma; SF-539 CNS; SK-MEL-2 melanoma; SK-MEL-28 melanoma; SNB-75 CNS; SW-620 colon; K-562 leukemia.
Test in all cases: NCI tumour cell line growth inhibition, 48 h

With `CCOC(=O)c1nc2ccccc2nc1Nc1ccc(C(=O)OC)s1`, the TGI in the experiment on ACHN renal, in the experiment with CCRF-CEM leukemia, with DU-145 prostate, in the experiment with LOX IMVI melanoma, in the experiment on SF-539 CNS and in the experiment with SK-MEL-2 melanoma was greater than 100 µM in each case. Further, the TGI in the experiment on SK-MEL-28 melanoma, with SNB-75 CNS and with SW-620 colon was greater than 100 µM throughout.
On to `CCOP(=O)(OCC)C(Nc1ccc(Cl)cc1)c1ccc(F)cc1` (stereo not drawn), for which the TGI in the experiment with ACHN renal is 97.2 µM; in the experiment on CCRF-CEM leukemia it was 93.1 µM; with DU-145 prostate it was 91.4 µM; in the experiment with K-562 leukemia it was 68.5 µM; in the experiment with LOX IMVI melanoma it was 29.1 µM; in the experiment on SF-539 CNS it was 49 µM. Besides, the TGI in the experiment on SK-MEL-2 melanoma stood at 35.8 µM; in the experiment with SK-MEL-28 melanoma, 41.7 µM; in the experiment on SNB-75 CNS, 84.8 µM.
As to `CCOC(=O)c1sc2nc(SC)nc3c2c1NCN3C`, the TGI is 59.3 µM in the experiment with ACHN renal; greater than 100 µM in the experiment with CCRF-CEM leukemia; greater than 100 µM in the experiment with DU-145 prostate; greater than 100 µM with LOX IMVI melanoma; greater than 100 µM in the experiment with SK-MEL-2 melanoma; greater than 100 µM in the experiment with SK-MEL-28 melanoma. In addition, in the experiment on SNB-75 CNS, the TGI was found to be 22.9 µM.
Turning to `O=C(CC(=O)N1N=C(c2ccccc2)C(N=Nc2ccc(S(=O)(=O)CCOS(=O)(=O)O)cc2)C1=O)Nc1ccc(Cl)cc1` (stereo not drawn), the TGI with ACHN renal, with CCRF-CEM leukemia, in the experiment on DU-145 prostate, in the experiment with K-562 leukemia, in the experiment on LOX IMVI melanoma and in the experiment with SF-539 CNS was greater than 100 µM each time. For the same molecule, the TGI with SK-MEL-2 melanoma, with SK-MEL-28 melanoma and in the experiment with SNB-75 CNS was greater than 100 µM throughout.
As to `Cc1ccc(/C=c2\c(=O)[nH]c3nc4ccccc4c(=O)n23)cc1`, the TGI is greater than 100 µM with ACHN renal; greater than 100 µM in the experiment with CCRF-CEM leukemia; greater than 100 µM in the experiment on DU-145 prostate; greater than 100 µM with LOX IMVI melanoma; 43.7 µM in the experiment on SF-539 CNS; greater than 100 µM in the experiment on SK-MEL-2 melanoma. Also, the TGI in the experiment on SK-MEL-28 melanoma was greater than 100 µM; with SNB-75 CNS it was 75.6 µM; in the experiment on SW-620 colon, 48.8 µM.
Turning to `OCc1ccc2c(c1)CC1(Cc3ccccc3C1)C2`, the TGI in the experiment with ACHN renal is 57.7 µM; in the experiment on CCRF-CEM leukemia, 54.4 µM; in the experiment with DU-145 prostate it was greater than 100 µM; in the experiment on K-562 leukemia, 38.1 µM; in the experiment on LOX IMVI melanoma, 29.7 µM; in the experiment with SF-539 CNS, 44.3 µM. The TGI was determined as 49.6 µM in the experiment on SK-MEL-28 melanoma, 30.2 µM in the experiment with SNB-75 CNS and 39 µM with SW-620 colon.
For the molecule `CC1(C)CCC2=C(O1)c1ccccc1C(=Nc1ccc([N+](=O)[O-])cc1)C2=O`, the TGI is 25.5 µM in the experiment with ACHN renal; 46.7 µM in the experiment with CCRF-CEM leukemia; 30.4 µM in the experiment on DU-145 prostate; greater than 100 µM with K-562 leukemia; greater than 100 µM with LOX IMVI melanoma; 32.8 µM in the experiment on SK-MEL-2 melanoma. Also, the TGI in the experiment on SK-MEL-28 melanoma came out at 29.8 µM; with SNB-75 CNS it was 38.4 µM; with SW-620 colon it was 29.6 µM. The GI50 is 19.6 µM in the experiment with CCRF-CEM leukemia, 16.8 µM in the experiment on DU-145 prostate and 7.59 µM in the experiment on LOX IMVI melanoma.
With `O=S(=O)(O)c1ccc(O)c(N=Nc2c(O)ccc3ccccc23)c1`, the TGI with CCRF-CEM leukemia was 86.9 µM; in the experiment with DU-145 prostate, greater than 100 µM; in the experiment on K-562 leukemia, greater than 100 µM; in the experiment on LOX IMVI melanoma, greater than 100 µM; with SK-MEL-2 melanoma, greater than 100 µM; in the experiment with SK-MEL-28 melanoma, greater than 100 µM. For the same molecule, the TGI in the experiment with SNB-75 CNS and with SW-620 colon was greater than 100 µM throughout.
`NS(=O)(=O)c1nnc(NS(=O)(=O)c2cccc3cccnc23)s1`: the TGI in the experiment on ACHN renal, with CCRF-CEM leukemia, with DU-145 prostate, in the experiment with K-562 leukemia, in the experiment with LOX IMVI melanoma and with SF-539 CNS was greater than 100 µM throughout. Besides, the TGI in the experiment on SK-MEL-2 melanoma, in the experiment on SK-MEL-28 melanoma and with SW-620 colon was greater than 100 µM each time.
With `CC1CN(c2cc3c(cc2F)c(=O)c(C(=O)O)cn3-c2ccc(N3CCN(C)CC3)cn2)CC(C)N1` (stereo not drawn), the TGI in the experiment on CCRF-CEM leukemia, in the experiment with DU-145 prostate, in the experiment on K-562 leukemia, with SF-539 CNS, with SK-MEL-28 melanoma and in the experiment on SNB-75 CNS was greater than 100 µM in each case. In the experiment with SW-620 colon, this molecule gave a TGI greater than 100 µM.
In the case of `CC(C)OC1=C(CC2(C)OCCO2)C(=O)C12OCCO2`, the TGI in the experiment with ACHN renal, with CCRF-CEM leukemia, in the experiment on DU-145 prostate, in the experiment with LOX IMVI melanoma, in the experiment with SF-539 CNS and with SK-MEL-2 melanoma was greater than 100 µM each time. Besides, the TGI with SK-MEL-28 melanoma, in the experiment on SNB-75 CNS and with SW-620 colon was greater than 100 µM throughout.
`N=c1ncn(C/C=C/c2ccccc2)c2nc[nH]c12`: the TGI in the experiment with ACHN renal, in the experiment on DU-145 prostate, with K-562 leukemia, in the experiment with LOX IMVI melanoma, in the experiment with SF-539 CNS and in the experiment on SK-MEL-2 melanoma was greater than 100 µM in each case. The TGI in the experiment with SK-MEL-28 melanoma, in the experiment with SNB-75 CNS and in the experiment on SW-620 colon was greater than 100 µM in each case.
As for `Cc1cn(C2CC(O)C(Cn3nncc3Cn3nc(Br)c(=O)[nH]c3=O)O2)c(=O)[nH]c1=O` (stereo not drawn), the TGI in the experiment with ACHN renal, with CCRF-CEM leukemia, with DU-145 prostate, in the experiment with LOX IMVI melanoma, in the experiment on SF-539 CNS and in the experiment with SK-MEL-2 melanoma was greater than 100 µM each time. Also, the TGI with SK-MEL-28 melanoma and in the experiment with SW-620 colon was greater than 100 µM in each case.
For `COP(=O)(CP(=O)(OC)OCCC(C)CCC=C(C)C)OC` (stereo not drawn), the TGI with ACHN renal, in the experiment with CCRF-CEM leukemia, with K-562 leukemia, in the experiment on LOX IMVI melanoma, in the experiment with SF-539 CNS and in the experiment on SK-MEL-2 melanoma was greater than 100 µM each time. Moreover, the TGI with SK-MEL-28 melanoma, with SNB-75 CNS and in the experiment with SW-620 colon was greater than 100 µM each time.
